Measurements as given in a compilation of properties of binary mixtures (doi:10.1021/acs.jced.8b00965).

Assay: xn = mol fraction of the nth substance listed
Details: 100 kPa

CO + C[N+](C)(C)CCC[n+]1ccccc1.N#C[N-]C#N.N#C[N-]C#N
x2 = 0
Details	viscosity [mPa·s]
293.15 K	0.584
303.15 K	0.508
313.15 K	0.446
323.15 K	0.395
333.15 K	0.352

CO + C[N+](C)(C)CCC[N+]1(C)CCCCC1.N#C[N-]C#N.N#C[N-]C#N
x2 = 0
Details	viscosity [mPa·s]
303.15 K	0.508
313.15 K	0.446
333.15 K	0.352

C[N+](C)(C)CCC[n+]1ccccc1.N#C[N-]C#N.N#C[N-]C#N + CO
viscosity [mPa·s]
Details	x1 = 0.0999	x1 = 0.2001	x1 = 0.3002	x1 = 0.3999	x1 = 0.5002	x1 = 0.6001	x1 = 0.7003	x1 = 0.7998	x1 = 0.8995	x1 = 1
293.15 K	4.37	14.9	32.5	–	117	233	343	508	–	2191
303.15 K	3.66	11.4	23.1	45.9	–	131	–	255	396	830
313.15 K	–	9.01	17.4	–	–	81.1	110	–	198	–
323.15 K	2.82	7.36	–	–	–	–	70.6	90.5	116	210
333.15 K	–	–	11.4	–	28	–	49.3	60.6	76	127

C[N+](C)(C)CCC[N+]1(C)CCCCC1.N#C[N-]C#N.N#C[N-]C#N + CO
viscosity [mPa·s]
Details	x1 = 0.0999	x1 = 0.2001	x1 = 0.3002	x1 = 0.3999	x1 = 0.5002	x1 = 0.6001	x1 = 0.7003	x1 = 0.7998	x1 = 0.8995	x1 = 1
293.15 K	4.25	14.7	39.6	109	–	–	1181	1884	2855	4503
303.15 K	3.58	–	–	70.3	–	330	610	920	1281	1837
313.15 K	3.09	8.9	20.3	46.7	100	203	337	489	646	860
323.15 K	–	7.22	–	33.8	68	130	206	292	369	460
333.15 K	2.46	6	12.5	–	48.4	88.2	134	187	236	270
